Results taken from the supplement of paper PMC10307832.

What follows are cell lines tested with C(C(=O)C(=O)O)Br [Bromopyruvate] + C[C@@H](Oc1cc(-c2cnn(C3CCNCC3)c2)cnc1N)c1c(Cl)ccc(F)c1Cl [Crizotinib] (partner 1 µM) (assay: relative viability (nuclei count vs DMSO), 5 days (fraction); higher = more cells survive). Settings: first compound 100 µM.
Summary of the method: (§1)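 Lung cancer cell lines were seeded in 1536-well plates and dosed by pin tool the next day, with either a single drug or a fixed anchor-drug dose combined with five library-drug doses (not always all listed) spaced in √10 steps. Five days later, one step fixed the cells and stained their nuclei (final 0.05% Triton X-100, 1% formaldehyde, 1 ug/ml Hoechst), and nuclei were counted on 4× images. Relative viability is the nuclei count in treated wells divided by the count in vehicle wells, and each value is the median of duplicate plates.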

Compared with LOU-NH91, ChaGo-K-1 is higher in relative viability: 0.724 for the first, 1.17 for the second.

Going from NCI-H2170 to NCI-H3122, the relative viability falls from 1.15 to 0.248.

Compared with HOP-62, HCC-44 is higher in relative viability: 0.65 for the first, 0.884 for the second.

Going from A549 to LU99A, the relative viability falls from 0.736 to 0.672.

Going from BEN to NCI-H441, the relative viability falls from 1.01 to 0.337.

NCI-H1299 gave a relative viability of 0.957.

These cell lines were tested with C(C(=O)C(=O)O)Br [Bromopyruvate] + CS(=O)(=O)CCNCc1ccc(-c2ccc3ncnc(Nc4ccc(OCc5cccc(F)c5)c(Cl)c4)c3c2)o1 [Lapatinib] (partner 2 µM) in the same assay as above. Settings: first compound 1 µM.
Summary of the method: as §1

Compared with NCI-H838, NCI-H1650 is lower in relative viability: 1.05 for the first, 0.765 for the second.

First: EBC-1
Second: NCI-H1703
The relative viability of the first is lower: 0.225 for the first, 1.14 for the second.

First: NCI-H2009
Second: NCI-H1993
The relative viability of the first is higher: 0.903 for the first, 0.698 for the second.

Compared with PC-14, NCI-H596 is higher in relative viability: 0.317 for the first, 1.11 for the second.

Going from NCI-H2228 to EMC-BAC-2, the relative viability falls from 1.45 to 0.832.

Compared with NCI-H2087, Calu-6 is lower in relative viability: 1.06 for the first, 1.04 for the second.

First: HCC-366
Second: NCI-H1666
The relative viability of the first is higher: 1.03 for the first, 0.823 for the second.

Going from NCI-H647 to LK-2, the relative viability falls from 1.02 to 0.936.

Compared with NCI-H2126, SK-MES-1 is lower in relative viability: 0.752 for the first, 0.417 for the second.

Going from H3255 to COR-L23, the relative viability rises from 0.272 to 0.744.

Going from COR-L 105 to IA-LM, the relative viability rises from 0.393 to 0.772.

First: LOU-NH91
Second: NCI-H2170
The relative viability of the first is higher: 0.818 for the first, 0.25 for the second.

First: NCI-H3122
Second: HOP-62
The relative viability of the first is lower: 0.982 for the first, 1.04 for the second.

Compared with HCC-44, A549 is higher in relative viability: 0.959 for the first, 1.03 for the second.

Going from LU99A to BEN, the relative viability falls from 1.05 to 0.617.

Going from NCI-H1395 to NCI-H1299, the relative viability falls from 1.07 to 0.952.

NCI-H1793 was tested, and the relative viability was 0.593.

Same assay, conditions: first compound 3.162 µM

First: NCI-H838
Second: NCI-H1650
The relative viability of the first is higher: 0.962 for the first, 0.69 for the second.

First: EBC-1
Second: NCI-H1703
The relative viability of the first is lower: 0.21 for the first, 1.35 for the second.

Compared with NCI-H2009, NCI-H1993 is lower in relative viability: 0.783 for the first, 0.763 for the second.

Compared with PC-14, NCI-H596 is higher in relative viability: 0.317 for the first, 1.08 for the second.

First: NCI-H2228
Second: EMC-BAC-2
The relative viability of the first is higher: 0.99 for the first, 0.922 for the second.

Going from NCI-H2087 to Calu-6, the relative viability rises from 1.02 to 1.15.

Compared with HCC-366, NCI-H1666 is lower in relative viability: 1.02 for the first, 0.666 for the second.

Going from NCI-H647 to LK-2, the relative viability falls from 0.972 to 0.88.

Going from NCI-H2126 to SK-MES-1, the relative viability falls from 0.78 to 0.466.

First: H3255
Second: COR-L23
The relative viability of the first is lower: 0.321 for the first, 0.869 for the second.

Compared with COR-L 105, IA-LM is higher in relative viability: 0.385 for the first, 0.86 for the second.

Compared with LOU-NH91, NCI-H2170 is lower in relative viability: 0.706 for the first, 0.284 for the second.

Going from NCI-H3122 to HOP-62, the relative viability falls from 1.05 to 1.02.

Going from HCC-44 to A549, the relative viability rises from 1.02 to 1.05.

Compared with LU99A, BEN is lower in relative viability: 0.898 for the first, 0.649 for the second.

Going from NCI-H1395 to NCI-H1299, the relative viability rises from 0.928 to 0.991.

NCI-H1793 showed a relative viability of 1.11.

Same assay, conditions: first compound 10 µM

Compared with NCI-H838, NCI-H1650 is lower in relative viability: 1.01 for the first, 0.75 for the second.

Going from EBC-1 to NCI-H1703, the relative viability rises from 0.226 to 1.39.

Compared with NCI-H2009, NCI-H1993 is lower in relative viability: 0.877 for the first, 0.705 for the second.

Going from PC-14 to NCI-H596, the relative viability rises from 0.361 to 1.15.

First: NCI-H2228
Second: EMC-BAC-2
The relative viability of the first is higher: 1.2 for the first, 1 for the second.

Going from NCI-H2087 to Calu-6, the relative viability falls from 1.09 to 1.08.

First: HCC-366
Second: NCI-H1666
The relative viability of the first is higher: 1.24 for the first, 0.677 for the second.

First: NCI-H647
Second: LK-2
The relative viability of the first is higher: 1.19 for the first, 0.871 for the second.

Compared with NCI-H2126, SK-MES-1 is lower in relative viability: 0.764 for the first, 0.488 for the second.

Going from H3255 to COR-L23, the relative viability rises from 0.239 to 1.43.

First: COR-L 105
Second: IA-LM
The relative viability of the first is lower: 0.362 for the first, 0.527 for the second.

Compared with LOU-NH91, NCI-H2170 is lower in relative viability: 0.735 for the first, 0.277 for the second.

Compared with NCI-H3122, HCC-44 is higher in relative viability: 0.961 for the first, 1.11 for the second.

Going from A549 to LU99A, the relative viability falls from 1.14 to 1.12.

Compared with BEN, NCI-H1395 is higher in relative viability: 0.744 for the first, 1.07 for the second.

Going from NCI-H1299 to NCI-H1793, the relative viability falls from 0.973 to 0.674.

Same assay, conditions: first compound 31.62 µM

Compared with NCI-H838, NCI-H1650 is lower in relative viability: 1.01 for the first, 0.81 for the second.

First: EBC-1
Second: NCI-H1703
The relative viability of the first is lower: 0.205 for the first, 1.15 for the second.

Going from NCI-H2009 to NCI-H1993, the relative viability falls from 0.874 to 0.847.

Compared with PC-14, NCI-H596 is higher in relative viability: 0.276 for the first, 1.01 for the second.

Compared with NCI-H2228, EMC-BAC-2 is lower in relative viability: 1.12 for the first, 0.833 for the second.

First: NCI-H2087
Second: Calu-6
The relative viability of the first is lower: 0.91 for the first, 1.06 for the second.

Going from HCC-366 to NCI-H1666, the relative viability falls from 1.01 to 0.701.

Going from NCI-H647 to LK-2, the relative viability falls from 1.15 to 0.967.

Compared with NCI-H2126, SK-MES-1 is lower in relative viability: 0.787 for the first, 0.432 for the second.

Going from H3255 to COR-L23, the relative viability rises from 0.249 to 0.846.

Compared with COR-L 105, IA-LM is higher in relative viability: 0.353 for the first, 0.816 for the second.

Compared with LOU-NH91, NCI-H2170 is lower in relative viability: 0.815 for the first, 0.246 for the second.

Going from NCI-H3122 to HOP-62, the relative viability rises from 1.01 to 1.02.

Going from HCC-44 to A549, the relative viability falls from 1.1 to 1.08.

Compared with LU99A, BEN is lower in relative viability: 0.992 for the first, 0.777 for the second.

Compared with NCI-H1395, NCI-H1299 is higher in relative viability: 0.919 for the first, 0.961 for the second.

Cell Line NCI-H1793 has a relative viability of 0.842.

Same assay, conditions: first compound 100 µM

Going from NCI-H838 to NCI-H1650, the relative viability falls from 0.936 to 0.815.

First: EBC-1
Second: NCI-H1703
The relative viability of the first is lower: 0.221 for the first, 1.22 for the second.

Going from NCI-H2009 to NCI-H1993, the relative viability falls from 0.909 to 0.769.

Going from PC-14 to NCI-H596, the relative viability rises from 0.325 to 1.16.

Going from NCI-H2228 to EMC-BAC-2, the relative viability falls from 1.1 to 0.912.

Compared with NCI-H2087, Calu-6 is lower in relative viability: 1.05 for the first, 0.856 for the second.

Going from HCC-366 to NCI-H1666, the relative viability falls from 1.05 to 0.557.

Going from NCI-H647 to LK-2, the relative viability falls from 0.916 to 0.826.

NCI-H2126 showed a relative viability of 0.751.
